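Protocol summary: plate cells (96-well), add compound at 5 concentrations, incubate 48 h, interpolate endpoints linearly. At the GI50, growth is halved.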 Activity calls are given as the source filed them. Cut-off read from the data, not from the text of the source: active = GI50 up to about 1.1 µM and inactive = higher. Bounds are passed on as bounds.

The results in this text go back to ChEMBL document CHEMBL1201862, “PubChem BioAssay data set” (2004).

What all share (experiment): NCI-60 cell line screen, 48 h
Experiment [1] deals with ACHN.
Experiment [2] has as its system SF-539.
Experiment [3] deals with NCI-H522.
The subject of experiment [4] is SN12C.
For experiment [5], the system named is SK-MEL-2.
The subject of experiment [6] is EKVX.
Experiment [7] concerns DU-145.
Experiment [8] concerns RXF 393.
Experiment [9] has as its system MDA-N.
Experiment [10] relates to HOP-62.
In experiment [11] the test system is A549.
Experiment [12] has as its system SF-268.
Experiment [13] deals with SR.
For experiment [14], the system named is SNB-19.
Experiment [15] deals with CCRF-CEM.
In experiment [16] the test system is A498.
The subject of experiment [17] is LOX IMVI.
Experiment [18] deals with MDA-MB-435.
In experiment [19] the test system is M14.

`COc1ccc(C=O)cc1Oc1ccc(C[C@H]2c3c(cc(OC)c4c3Oc3cc5c(cc3O4)CCN(C)C5=O)CCN2C)cc1`: the GI50 in [1] is 8.43 µM (inactive); in experiment [2], 8.67 µM (inactive); in experiment [3] it was 9.44 µM (inactive); in [4], 12.9 µM (inactive); in experiment [5], 11.5 µM (inactive); in experiment [6] it was 9.4 µM (inactive). In addition, the GI50 in experiment [7] was 12.1 µM (inactive); in experiment [8], 3.59 µM (inactive); in [9] it was 8.67 µM (inactive); in [10], 8.32 µM (inactive); in experiment [11], 36.2 µM (inactive); in [12] it was 10.3 µM (inactive). Moreover, the GI50 in experiment [13] was 9.38 µM (inactive); in [14], 12 µM (inactive); in experiment [15], 10 µM (inactive); in experiment [16] it was 20.1 µM (inactive); in [17], 9.29 µM (inactive); in experiment [18], 9.73 µM (inactive). In addition, the GI50 in experiment [19] was 8.65 µM (inactive).

`CS/C(=N\c1nccs1)NC(=O)c1cccc(Cl)c1`: the GI50 is > 100 µM (inactive) in [1]; > 100 µM (inactive) in experiment [2]; 34.4 µM (inactive) in [3]; 79.4 µM (inactive) in [4]; > 100 µM (inactive) in experiment [5]; 19 µM (inactive) in experiment [6]. Moreover, the GI50 in experiment [8] is > 100 µM (inactive); in [10], > 100 µM (inactive); in experiment [11] it was > 100 µM (inactive); in [12], > 100 µM (inactive); in experiment [13], 24.6 µM (inactive); in experiment [14] it was > 100 µM (inactive). The GI50 was 72.6 µM (inactive) in experiment [15], 81.8 µM (inactive) in experiment [16], 83.6 µM (inactive) in experiment [17] and > 100 µM (inactive) in experiment [19].

Turning to `CC(C)OP(=O)(OC(C)C)/C(Cl)=N/Nc1ccc([N+](=O)[O-])cc1`, the GI50 in experiment [1], in experiment [2], in experiment [3], in experiment [4], in [5] and in experiment [6] was > 100 µM (inactive) throughout. Besides, the GI50 in [10] was > 100 µM (inactive); in [11] it was > 100 µM (inactive); in [12] it was > 100 µM (inactive); in [13] it was 92.3 µM (inactive); in [14], > 100 µM (inactive); in experiment [15], 59 µM (inactive). Also, the GI50 is 24 µM (inactive) in experiment [16], 44.9 µM (inactive) in experiment [17] and > 100 µM (inactive) in [19].

As to `COc1ccc(O)c2c(=O)ccccc12`, the GI50 in experiment [1] was > 100 µM (inactive); in experiment [2] it was > 100 µM (inactive); in experiment [3], 28.8 µM (inactive); in experiment [4] it was > 100 µM (inactive); in [5] it was > 100 µM (inactive); in experiment [6], > 100 µM (inactive). In addition, the GI50 in experiment [8] is 4.79 µM (inactive); in experiment [10], > 100 µM (inactive); in [11], > 100 µM (inactive); in experiment [12], > 100 µM (inactive); in experiment [13] it was > 100 µM (inactive); in [14] it was > 100 µM (inactive). The GI50 in [15], in experiment [16], in [17] and in experiment [19] was > 100 µM (inactive) in each case.

In the case of `Cc1ccc(Cl)c(NC(=O)C(=O)C(C(=O)c2ccncc2)C2OC(=O)c3ccccc32)c1` (configuration not stated), the GI50 in experiment [1], in [2], in [3], in [4], in [6] and in [8] was > 100 µM (inactive) each time. Further, the GI50 is > 100 µM (inactive) in experiment [10]; > 100 µM (inactive) in experiment [11]; > 100 µM (inactive) in [12]; > 100 µM (inactive) in experiment [13]; 0.512 µM (active) in experiment [15]; > 100 µM (inactive) in experiment [16]. Moreover, the GI50 in experiment [17] and in [19] was > 100 µM (inactive) in each case.

Take `COC(=O)C1(O)c2ccccc2N=C2C1CCN2C` (configuration not stated): the GI50 in experiment [1], in experiment [2], in experiment [3], in experiment [4], in experiment [5] and in experiment [6] was > 100 µM (inactive) in each case. The GI50 in [8], in experiment [10], in [11], in experiment [12], in experiment [13] and in [14] was > 100 µM (inactive) in each case. The GI50 in experiment [15], in experiment [16], in experiment [17] and in experiment [19] was > 100 µM (inactive) each time.

In the case of `COc1cc2c(cc1OC)-c1c(cc(OC)c(OC)c1OC)C2=O`, the GI50 in [1] is > 100 µM (inactive); in experiment [2] it was > 100 µM (inactive); in experiment [3], 49 µM (inactive); in [4] it was > 100 µM (inactive); in [6], > 100 µM (inactive); in experiment [8], > 100 µM (inactive). For the same compound, the GI50 was 25.9 µM (inactive) in experiment [10]; > 100 µM (inactive) in experiment [11]; > 100 µM (inactive) in [12]; > 100 µM (inactive) in [13]; > 100 µM (inactive) in [14]; 81.7 µM (inactive) in [15]. Further, the GI50 in experiment [17] and in experiment [19] was > 100 µM (inactive) throughout.

For the compound `Cc1cc(C(=O)N2CCN(Cc3ccccc3)CC2)c(C)o1`, the GI50 in experiment [1], in [2], in experiment [3], in experiment [4], in [6] and in [10] was > 100 µM (inactive) each time. In addition, the GI50 in experiment [11], in experiment [12], in experiment [13], in experiment [14], in [15] and in experiment [16] was > 100 µM (inactive) in each case. The GI50 in experiment [17] and in experiment [19] was > 100 µM (inactive) each time.

With `COc1cc(O)c2c(c1)O[C@@H]1OCC[C@H]21`, the GI50 in experiment [1], in experiment [2], in experiment [4], in experiment [5], in experiment [6] and in [10] was > 100 µM (inactive) in each case. Moreover, the GI50 in experiment [11], in experiment [13], in experiment [14], in experiment [15], in [16] and in experiment [17] was > 100 µM (inactive) each time. In addition, the GI50 in experiment [19] was > 100 µM (inactive).

Consider `NC(=S)NNc1c([N+](=O)[O-])cnn(-c2ccccc2)c1=O`, for which the GI50 in experiment [1] is 18.7 µM (inactive); in experiment [2], 18.8 µM (inactive); in experiment [3], 18.7 µM (inactive); in experiment [4] it was 17.1 µM (inactive); in experiment [8], 18.5 µM (inactive); in experiment [10], 19.2 µM (inactive). The GI50 in [11] was 23 µM (inactive); in experiment [12] it was 21.1 µM (inactive); in experiment [13] it was 4.05 µM (inactive); in experiment [14], 19 µM (inactive); in experiment [17], 10.3 µM (inactive); in [19], 15 µM (inactive).

For `Nc1ncnc2c1ncn2C1(CO)OC(CO)C(O)C1O` (configuration not stated), the GI50 in [1], in experiment [3], in experiment [4], in experiment [5], in experiment [8] and in experiment [10] was > 100 µM (inactive) throughout. Moreover, the GI50 in experiment [11], in experiment [12], in experiment [13], in experiment [14], in experiment [15] and in experiment [16] was > 100 µM (inactive) each time. Also, the GI50 in experiment [17] and in experiment [19] was > 100 µM (inactive) in each case.

Turning to `CC1(C)COC(C2(C)C(=O)C=C(c3ccccc3)c3ccccc32)=N1` (configuration not stated), the GI50 in experiment [1] was 34.9 µM (inactive); in [2], 43.6 µM (inactive); in experiment [3], 35.5 µM (inactive); in experiment [4], 30.5 µM (inactive); in experiment [5], 37.3 µM (inactive); in experiment [6], 45.4 µM (inactive). For the same compound, the GI50 in [8] was 55.3 µM (inactive); in experiment [10], 64.9 µM (inactive); in experiment [11] it was 33.3 µM (inactive); in experiment [12], 58.2 µM (inactive); in experiment [13] it was 37.2 µM (inactive); in [14], 50.5 µM (inactive). Further, the GI50 is 35.5 µM (inactive) in [15] and 46.1 µM (inactive) in experiment [19].

As to `CC(C)(C)C1CCP(=O)(c2ccccc2)CC1` (configuration not stated), the GI50 in [1], in experiment [2], in experiment [3], in experiment [4], in [5] and in experiment [6] was > 100 µM (inactive) in each case. Besides, the GI50 in experiment [8], in [10], in experiment [11], in [13], in [14] and in [15] was > 100 µM (inactive) each time. Also, the GI50 in experiment [16], in [17] and in experiment [19] was > 100 µM (inactive) each time.
